Article PMC10757720, “Impact of CRAMP-34 on Pseudomonas aeruginosa biofilms and extracellular metabolites” (Frontiers in Cellular and Infection Microbiology, 2023)
≈ marks a conversion by molar mass, not a printed value. Where two headings read alike, the source gives them in different places. Positions of bridges follow the written chain, without caps; N, C: chain ends. Non-standard residues stand in square brackets, D forms with d. Residues, ends and D or L forms follow the SMILES beside them. No end group written: not given here. *: point of attachment. X1 = CC[C@H](C)CCCCC(=O)*; Dab = NCC[C@H](N)C(=O)O

Key:
PAO1 = assay: microbe, parasite or virus in culture; assay type: cell-based, Pseudomonas aeruginosa
From the text: Supplement DataSheet_1.docx, table 1: Table S1 Minimum inhibitory concentrations of various drugs against PAO1 | column: MIC(μg/mL)

[1] = test system: PAO1 planktonic and dispersed bacteria; assay: Inducible resistance, multi-step induction over 25 generations; assay type: cell-based, Pseudomonas aeruginosa; details: for increase in the MIC value after induction: 25 continuous generations, induction with the agent alone at 1/4 MIC, consistent across planktonic and dispersed bacteria; for MIC values after co-induction with CRAMP-34: antibiotic at 1/4 MIC combined with CRAMP-34 at 1/4 MIC, 25 generations, vs antibiotic alone, planktonic and dispersed bacteria
Description: Bacterial resistance was induced in vitro using a modified multi-step method ([Zhu et al., 2017]). The method of obtaining dispersed bacteria was described previously ([Zhang et al., 2022]). Planktonic bacteria and biofilm dispersion bacteria were induced at the initial 1/4 MIC concentration of antimicrobial agents every 24 hours. The latest MIC was measured every 2 generations and the drug concentration was changed according to the latest results.

surface-attached biofilm = details: exogenous addition of succinate and glutamate; ref Sauer et al., 2004; cited from earlier work
PAO1 preformed biofilms = assay: Effect of exogenous glutamate and succinate on PAO1 preformed biofilm biomass; details: preformed 96-h-old biofilms, different concentrations, 37°C, 24 h; certain dose-dependent effect (one way ANOVA)
[2] = Pseudomonas aeruginosa, read-out: MIC

NCC[C@H](O)C(=O)N[C@@H]1C[C@H](N)[C@@H](O[C@H]2O[C@H](CN)[C@@H](O)[C@H](O)[C@H]2O)[C@H](O)[C@H]1O[C@H]1O[C@H](CO)[C@@H](O)[C@H](N)[C@H]1O [Amikacin]
MIC (PAO1; [2]): 0.25 µg/mL (≈ 0.427 µM)

CC[C@H]1OC(=O)[C@H](C)[C@@H](O[C@H]2C[C@@](C)(OC)[C@@H](O)[C@H](C)O2)[C@H](C)[C@@H](O[C@@H]2O[C@H](C)C[C@H](N(C)C)[C@H]2O)[C@](C)(O)C[C@@H](C)CN(C)[C@H](C)[C@@H](O)[C@]1(C)O [Azithromycin]
MIC (PAO1; [2]): 16 µg/mL (≈ 21.4 µM)

CCN1CCN(C(=O)N[C@@H](C(=O)N[C@@H]2C(=O)N3C(C(=O)O)=C(CSc4nnnn4C)CS[C@H]23)c2ccc(O)cc2)C(=O)C1=O [Cefoperazone]
MIC (PAO1; [2]): 4 µg/mL (≈ 6.2 µM)

CO/N=C(\C(=O)N[C@@H]1C(=O)N2C(C(=O)[O-])=C(C[n+]3cccc4c3CCCC4)CS[C@H]12)c1csc(N)n1.O=S(=O)(O)O [Cefoquinol]
MIC (PAO1): 2 µg/mL

CC(C)(O/N=C(\C(=O)N[C@@H]1C(=O)N2C(C(=O)[O-])=C(C[n+]3ccccc3)CS[C@H]12)c1csc(N)n1)C(=O)O [Ceftazidime]
MIC (PAO1; [2]): 1 µg/mL (≈ 1.83 µM)

O=C(O)c1cn(C2CC2)c2cc(N3CCNCC3)c(F)cc2c1=O [Ciprofloxacin]
increase in the MIC value after induction [1]: sixty-fourfold
MIC values after co-induction with CRAMP-34 [1]: significantly reduced
MIC (PAO1; [2]): 0.031 µg/mL (≈ 0.0936 µM)

CC[C@H](C)CCCCC(=O)N[C@@H](CCN)C(=O)N[C@H](C(=O)N[C@@H](CCN)C(=O)N[C@H]1CCNC(=O)[C@H]([C@@H](C)O)NC(=O)[C@H](CCN)NC(=O)[C@H](CCN)NC(=O)[C@H](CC(C)C)NC(=O)[C@@H](CC(C)C)NC(=O)[C@H](CCN)NC1=O)[C@@H](C)O [Colistin] (X1-[Dab]T[Dab][Dab][Dab][dL]L[Dab][Dab]T; lactam 4-C (inferred); N-terminus assumed)
increase in the MIC value after induction [1]: thirty-twofold
MIC values after co-induction with CRAMP-34 [1]: significantly reduced
MIC (PAO1): 0.25 µg/mL (≈ 0.214 µM)

CCN1CCN(c2cc3c(cc2F)c(=O)c(C(=O)O)cn3C2CC2)CC1 [Enrofloxacin]
MIC (PAO1; [2]): 0.5 µg/mL (≈ 1.39 µM)

CNC(C)C1CCC(N)C(OC2C(N)CC(N)C(OC3OCC(C)(O)C(NC)C3O)C2O)O1 (centres unmarked) [Gentamicin]
MIC (PAO1; [2]): 0.5 µg/mL (≈ 1.05 µM)

C[C@@H](O)[C@H]1C(=O)N2C(C(=O)O)=C(SCCN=CN)C[C@H]12 [Imipenem]
MIC (PAO1; [2]): 2 µg/mL (≈ 6.68 µM)

C[C@@H](O)[C@H]1C(=O)N2C(C(=O)O)=C(S[C@@H]3CN[C@H](C(=O)N(C)C)C3)[C@H](C)[C@H]12 [Meropenem]
MIC (PAO1; [2]): 0.5 µg/mL (≈ 1.3 µM)

CCN1CCN(C(=O)N[C@@H](C(=O)N[C@@H]2C(=O)N3[C@@H]2SC(C)(C)[C@@H]3C(=O)O)c2ccccc2)C(=O)C1=O [Piperacillin]
MIC (PAO1; [2]): 2 µg/mL (≈ 3.86 µM)

CC[C@H]1OC(=O)[C@H](C)[C@@H](O[C@H]2C[C@@](C)(OC)[C@@H](O)[C@H](C)O2)[C@H](C)[C@@H](O[C@@H]2O[C@H](C)C[C@H](N(C)C)[C@H]2O)[C@](C)(O)C[C@@H](C)/C(=N\OCOCCOC)[C@H](C)[C@@H](O)[C@]1(C)O [Roxithromycin]
MIC (PAO1; [2]): 512 µg/mL (≈ 612 µM)

CN[C@H](CC(C)C)C(=O)N[C@H]1C(=O)N[C@@H](CC(N)=O)C(=O)N[C@H]2C(=O)N[C@H]3C(=O)N[C@H](C(=O)N[C@H](C(=O)O)c4cc(O)cc(O)c4-c4cc3ccc4O)[C@H](O)c3ccc(c(Cl)c3)Oc3cc2cc(c3O[C@@H]2O[C@H](CO)[C@@H](O)[C@H](O)[C@H]2O[C@H]2C[C@](C)(N)[C@H](O)[C@H](C)O2)Oc2ccc(cc2Cl)[C@H]1O [Vancomycin]
MIC (PAO1; Pseudomonas aeruginosa): 1020 µg/mL (≈ 707 µM)

N[C@@H](CCC(=O)O)C(=O)O [glutamate]
reduction in surface-attached biofilm biomass (surface-attached biofilm): ~80%
effect of exogenous addition on pre-biofilms (biomass) (PAO1 preformed biofilms): significant effects on eradicating pre-biofilms

O=C(O)CCC(=O)O [succinate]
reduction in surface-attached biofilm biomass (surface-attached biofilm): ~80%
effect of exogenous addition on pre-biofilms (biomass) (PAO1 preformed biofilms): significant effects on eradicating pre-biofilms

GLLRKGGEKIGEKLKKIGQKIKNFFQKLVPQPEQ [CRAMP-34]
MIC (PAO1): 31.25 µg/mL
